Test results taken from article PMC7504417 (International Journal of Molecular Sciences, 2020).
Counter-ions that a name gives are not always drawn. Like-named read-outs stand apart in the source and are kept apart here.

Key:
receptor peptides tested = test: UV spectrophotometry binding to all peptides tested (summary)
[1] = biological target: T1, histamine 1 receptor peptide HIHR 177–183 RDKCETD (Homo sapiens, UniProt P35367, E177R); test: biochemical; assay type: binding; settings: UV spectrophotometry; read-out: Kd (µM) HIHR 177–183 RDKCETD
T1 construct: HIHR 177–183 RDKCETD; purchased RS Synthesis (Louisville, KY, USA); host or cells: chemical synthesis

[2] = biological target: Dopamine Receptor (dopamine 1 receptor peptides) (Homo sapiens, UniProt P21728); test: Overall pattern of binding: Dopamine Receptor peptides
Description: (§1) The method used was ultraviolet spectrophotometry, which is a sensitive way to test for the binding of pairs of molecules. Binding data obtained using this method have previously been validated by direct comparison to results of nuclear magnetic resonance, circular dichroism, capillary electrophoresis, and other physicochemical methods (e.g., [51, 87, 88, 89, 90]).
(§2) For each individual test, the concentration of the stock solution was calculated and then diluted to a 10 µM solution.
(§3) Thus, the final concentration of receptor peptide in each well varied from 0.5 mM to 0.05 pM while the other compound was held fixed at 5 µM.
(§4) The method of calculating binding constants was to measure the absorbance (minus the absorbance of the buffer) of 100 µL of each compound by itself diluted by 100 µL of buffer at a given wavelength (in this case at 200 nm) at the range of concentrations utilized in the experiments. The average of the resulting values is calculated. (If the experiments are run properly, there is very little variance—a couple of percent. If there was more variance than that, the experiment was re-run.) An “expected” value is calculated following Beer’s law, by adding the absorbances of each pair of compounds (peptide plus small molecule). […]
(§5) The difference between the “expected” and actual values was determined at each concentration of the varied compound. […]

[3] = biological target: T2, histamine 1 receptor peptide H1HR 105–108 SMDY (Homo sapiens, UniProt P35367); test: biochemical; assay type: binding; settings: UV spectrophotometry; single value, or first (higher-affinity) value of a cell a/b; read-out: Kd (µM) H1HR 105–108 SMDY
T2 construct: H1HR 105–108 SMDY; purchased RS Synthesis (Louisville, KY, USA); host or cells: chemical synthesis

[4] = biological target: reduced glutathione (Glut RED, ECG); test: UV spectrophotometry binding to reduced glutathione; settings: UV spectrophotometry at 200 nm, pH 7.00 phosphate-buffered saline, ca. 24 °C
[5] = biological target: Histamine Receptor (histamine 1 receptor peptides) (Homo sapiens, UniProt P35367); test: biochemical; assay type: binding; settings: first symbol of the cell
[6] = biological target: T3, beta 2 adrenergic receptor peptide B2AR 183–185 NCY (Homo sapiens, UniProt P07550); test: biochemical; assay type: binding; settings: Figure 4
T3 construct: B2AR 183–185 NCY; purchased RS Synthesis (Louisville, KY, USA); host or cells: chemical synthesis

[7] = biological target: oxidized glutathione (Glut OX, ECG-ECG); test: UV spectrophotometry binding to oxidized glutathione; settings: UV spectrophotometry; single value, or first (higher-affinity) value of a cell a/b; read-out: Kd (µM) Glut OX ECG-ECG
[8] = biological target: Adrenergic Receptor (beta 2 adrenergic receptor peptides) (Homo sapiens, UniProt P07550); test: Overall pattern of binding: Adrenergic Receptor peptides
Description: as §1, §2, §3, §4, §5

[9] = biological target: T4, histamine 1 receptor peptide H1HR 77–87 GAVVMPMNILYL (Homo sapiens, UniProt P35367); test: biochemical; assay type: binding; settings: UV spectrophotometry; single value, or first (higher-affinity) value of a cell a/b; read-out: Kd (µM) H1HR 77–87 […]
T4 construct: H1HR 77–87 GAVVMPMNILYL; purchased RS Synthesis (Louisville, KY, USA); host or cells: chemical synthesis

[10] = biological target: Opioid Receptor (mu opioid receptor peptides) (Homo sapiens, UniProt P35372); test: Overall pattern of binding: Opioid Receptor peptides
Description: as §1, §2, §3
The method of calculating binding constants was to measure the absorbance (minus the absorbance of the buffer) of 100 µL of each compound by itself diluted by 100 µL of buffer at a given wavelength (in this case at 200 nm) at the range of concentrations utilized in the experiments. The average of the resulting values is calculated. (If the experiments are run properly, there is very little variance—a couple of percent. If there was more variance than that, the experiment was re-run.) An “expected” value is calculated following Beer’s law, by adding the absorbances of each pair of compounds (peptide plus small molecule). The actual chemical combinations of these molecules was then run under identical conditions.
The difference between the “expected” and actual values was determined at each concentration of the varied compound. This difference was then plotted against the concentration of the varied compound. […] The binding constant was approximated by using the inflection point of the binding curve (i.e., the point at which the dissociation and association of the two molecules was equal). […] All data were analyzed using Microsoft Excel.
Because the resulting absorbances are the differences between the independently measured absorbances, it is not possible to calculate error bars or to perform statistics on the resulting values.

Glutathione = test: Overall pattern of binding: Glutathione (reduced and oxidized)
[11] = intrathecal delivery; cited from earlier work
[12] = biological target: dopamine 1 receptor peptide D1DR 96–98 FCN (Homo sapiens, UniProt P21728); test: biochemical
[13] = biological target: T5, beta 2 adrenergic receptor peptide B2AR 105–108 WCEF (Homo sapiens, UniProt P07550); test: biochemical; assay type: binding
T5 construct: B2AR 105–108 WCEF; purchased RS Synthesis (Louisville, KY, USA); host or cells: chemical synthesis

[14] = biological target: T6, beta 2 adrenergic receptor peptide B2AR 97–103 KMWTFGN (Homo sapiens, UniProt P07550); test: biochemical; assay type: binding
T6 construct: B2AR 97–103 KMWTFGN; purchased RS Synthesis (Louisville, KY, USA); host or cells: chemical synthesis

[15] = tested on: glutathione S-transferase A-5 and CYP3A2 expression in rat liver; design: method as in PMID 20487198; settings: exposure to opioid; cited from earlier work

Sequence of Opioid Receptor (mu opioid receptor peptides) (P35372 with tags, fused parts or gaps): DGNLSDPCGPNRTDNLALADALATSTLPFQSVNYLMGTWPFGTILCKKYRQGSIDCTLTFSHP
Sequence of Adrenergic Receptor (beta 2 adrenergic receptor peptides) (P07550 with tags, fused parts or gaps): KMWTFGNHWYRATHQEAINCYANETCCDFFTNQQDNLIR
Sequence of Histamine Receptor (histamine 1 receptor peptides) (P35367 with tags, fused parts or gaps): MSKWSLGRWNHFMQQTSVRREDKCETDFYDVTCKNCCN
Sequence of Dopamine Receptor (dopamine 1 receptor peptides) (P21728 with tags, fused parts or gaps): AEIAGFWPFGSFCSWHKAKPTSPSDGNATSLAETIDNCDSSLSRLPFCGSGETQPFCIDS

## CC(=O)OCC[N+](C)(C)C [Acetylcholine, acetylcholine]
Receptor peptides tested
  observable affinity of the peptides tested, in words: none of the peptides tested had observable affinity
[1]
  Kd: > 1000 µM
[2]; first symbol of the cell
  Kd: > 60 µM
[3]
  Kd: > 1000 µM
[4]
  Kd: > 1000 µM
[5]
  Kd: > 60 µM
[6]
  binding to adrenergic receptor peptide 183–185 (NCY), in words: No binding was observed
[7]
  Kd: > 1000 µM
[8]; first symbol of the cell
  Kd: > 60 µM
[9]
  Kd: > 1000 µM
[10]; first symbol of the cell
  Kd: > 60 µM

## OC[C@H]1OC(O)[C@H](O)[C@@H](O)[C@@H]1O (stereo partly drawn) [Glucose, glucose]
Receptor peptides tested
  observable affinity of the peptides tested, in words: none of the peptides tested had observable affinity
[1]
  Kd: > 1000 µM
[2]
  Kd: > 60 µM
[4]
  Kd: > 1000 µM
[5]
  Kd: > 60 µM
[6]
  binding to adrenergic receptor peptide 183–185 (NCY), in words: No binding was observed
[7]
  Kd: > 1000 µM
[8]
  Kd: > 60 µM
Glutathione
  binding to either reduced or oxidized glutathione, in words: do not bind appreciably
[10]
  Kd: > 60 µM

## CN1CC[C@]23c4c5ccc(O)c4O[C@H]2[C@@H](O)C=C[C@H]3[C@H]1C5 [Morphine, morphine sulfate]
[11]
  transient cerebrospinal fluid concentrations: approximately 25 µM
[12]
  Kd: 25 µM

## NCCc1c[nH]c2ccc(O)cc12 [Serotonin, serotonin]
[1]
  Kd: 60 µM
[13]
  Kd: 45 µM
[3]
  Kd: 120 µM
[14]
  Kd: 430 µM
[4]
  Kd: 70 µM
[7]
  Kd: > 1000 µM
[9]
  Kd: 50 µM
[10]; first symbol of the cell
  Kd: > 60 µM

## COc1ccc2c3c1O[C@H]1C(=O)CC[C@@]4(O)[C@@H](C2)N(C)CC[C@]314 [oxycodone]
[15]
  expression in rat liver of glutathione S-transferase A-5: greater than six-fold increase
  expression of the cytochrome enzyme CYP3A2: decreased seven-fold
